Data as given in patent publication US20240335382A1, “NANO- OR MICRO-EMULSION COMPOSITIONS AND METHODS OF USE THEREOF” (Nutraceutical Wellness, Inc., priority 2021, published 2024).

Tested on: skin of human subjects
Experiment: Acute primary skin patch test, single 48-hour application
Type: in vivo
Details: positive control, 55 subjects completing study
Method: To determine the primary (acute) irritation potential of a test material after a single application to the skin of human subjects for 48 hours.
Test materials to be tested under occlusive conditions were placed on an 8-millimeter aluminum Finn Chamber® (Epitest Ltd. Oy, Tuusula, Finland) supported on Scanpor® Tape (Norgesplaster A/S, Kristiansand, Norway) or an 8-millimeter filter paper coated aluminum Finn Chamber® AQUA supported on a thin flexible transparent polyurethane rectangular film coated on one side with a medical grade acrylic adhesive, consistent with adhesive used in state-of-the-art hypoallergenic surgical tapes or a 7 mm IQ-ULTRA® closed cell system which is made of additive-free polyethylene plastic foam with a filter paper incorporated (It is supplied in units of 10 chambers on a hypoallergenic non woven adhesive tape; the width of the tape is 52 mm and the length is 118 mm) or other equivalents.
Test materials to be tested under semi-occlusive conditions were placed on a test strip with a Rayon/Polypropylene pad or on a 7.5 mm filter paper disc affixed to a strip of hypoallergenic tape (Johnson & Johnson 1 inch First Aid Cloth Tape). […]
Trained skin grading laboratory personnel removed the patch and evaluated the test sites.
In the event of an adverse reaction, the area of erythema and edema is measured. […]

CCCCCCCCCCCCOS(=O)(=O)[O-].[Na+] [2.0% Sodium Lauryl Sulfate Solution, Sodium Lauryl Sulfate]
subjects with a Grade 1 reaction: 16 subjects
